Test results published in patent US20080090834A1, “SELECTIVE AZOLE PDE10A INHIBITOR COMPOUNDS” (Pfizer Inc, priority 2006, published 2008).
Where a name gives a salt, the structure may show the parent alone.

Target: T1, cloned rat PDE10A full-length enzyme (Rattus norvegicus, UniProt Q9QYJ6)
T1 construct: cloned rat PDE10A full-length enzyme grown in transfected Sf9 insect cells; made in house; host or cells: Sf9 insect cells
T1 sequence (Q9QYJ6 1-794): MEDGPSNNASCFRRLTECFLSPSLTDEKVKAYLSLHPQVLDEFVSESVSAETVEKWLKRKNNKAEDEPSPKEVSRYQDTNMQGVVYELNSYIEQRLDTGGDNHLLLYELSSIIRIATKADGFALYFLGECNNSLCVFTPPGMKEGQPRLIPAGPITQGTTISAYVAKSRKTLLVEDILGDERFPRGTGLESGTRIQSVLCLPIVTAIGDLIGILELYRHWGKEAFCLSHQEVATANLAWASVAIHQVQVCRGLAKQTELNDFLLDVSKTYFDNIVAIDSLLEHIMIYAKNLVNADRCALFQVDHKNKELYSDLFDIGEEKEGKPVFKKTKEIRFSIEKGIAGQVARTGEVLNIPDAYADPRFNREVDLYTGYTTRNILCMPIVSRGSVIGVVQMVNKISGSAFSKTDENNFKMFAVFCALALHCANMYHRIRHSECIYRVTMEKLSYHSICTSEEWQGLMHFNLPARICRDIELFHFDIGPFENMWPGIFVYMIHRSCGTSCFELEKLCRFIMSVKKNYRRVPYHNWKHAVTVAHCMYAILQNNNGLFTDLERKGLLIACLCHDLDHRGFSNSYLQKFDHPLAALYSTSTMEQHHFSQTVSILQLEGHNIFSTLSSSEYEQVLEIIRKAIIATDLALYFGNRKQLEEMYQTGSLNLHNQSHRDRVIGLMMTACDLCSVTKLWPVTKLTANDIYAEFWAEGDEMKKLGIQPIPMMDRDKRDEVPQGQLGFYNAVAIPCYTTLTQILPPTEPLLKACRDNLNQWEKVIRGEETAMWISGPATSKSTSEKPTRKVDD
Assay: PDE10 enzyme inhibition, [3H]cAMP scintillation proximity assay
Format: biochemical
Conditions: rat PDE10A from Sf9 cells, 20 nM [3H]cAMP, SPA beads, 20 minute incubation at room temperature
Method: Compounds of the present invention were evaluated for ability to inhibit PDE10 enzyme with the following Assay procedure
The enzyme used in the procedure was cloned rat PDE10A full-length enzyme grown in transfected Sf9 insect cells. Cloned enzyme was extracted from homogenized cell pellets and stored frozen in homogenizing buffer until use. Compounds were initially dissolved in 100% DMSO and diluted out in 20 percent DMSO/water solution. Final concentration of DMSO in the assay was 2 percent as compounds were tested in triplicate in 96 well plates. Compound solution was placed in well, then tritiated cyclic AMP (New England Nuclear NET275) in assay buffer was added at 20 nM concentration. Then PDE10 enzyme in assay buffer of 50 mM Tris, 8.3 mM MgCl2, pH 7.5 at room temperature was added for a final assay volume of 100 ul. Concentration of enzyme was added such that less than 10 percent of [3H]cAMP at 20 nM was converted to detectable end product, [3H]AMP bound to SPA (Scintillation Proximity Assay) beads. Phosphodiesterase scintillation proximity yttrium silicate beads from Amersham Biosciences (RPNQ0150) were added (50 ul at 20 mg/ml) after a 20 minute incubation at room temperature. Zinc sulphate as a component of the beads stops the phosphodiesterase reaction.
Non-specific binding to SPA beads was determined by addition of 1 uM papaverine. Total conversion by enzyme without inhibitor of [3H]cAMP to [3H]AMP, as detected by scintillation of [3H]AMP bound to yttrium silicate beads, was determined in the presence of vehicle-only.

Clc1ccc(-c2cn(-c3cncnc3)c(-c3ccc(-n4ccc5cccnc54)cc3)n2)s1 [Example 62, 1-(4-(4-(5-chlorothiophen-2-yl)-1-(pyrimidin-5-yl)-1H-imidazol-2-yl)phenyl)-1H-pyrrolo[2,3-b]pyridine]
IC50: 65.1 nM

Cc1csc(-c2cn(-c3cncnc3)c(-c3ccc(-n4ccc5cccnc54)cc3)n2)n1 [Example 63]
IC50: 13.8 nM

Cc1ccc(-n2cc(-c3ccc(F)s3)nc2-c2ccc(-n3ccc4cccnc43)cc2)cn1 [Example 64, 1-(4-(4-(5-fluorothiophen-2-yl)-1-(6-methylpyridin-3-yl)-1H-imidazol-2-yl)phenyl)-1H-pyrrolo[2,3-b]pyridine]
IC50: 6.59 nM

Cc1cc(-n2cc(-c3nccn3C)nc2-c2ccc(-n3ccc4cccnc43)cc2)ccn1 [Example 66, 1-(4-(4-(1-methyl-1H-imidazol-2-yl)-1-(2-methylpyridin-4-yl)-1H-imidazol-2-yl)phenyl)-1H-pyrrolo[2,3-b]pyridine]
IC50: 112 nM

Cn1ccnc1-c1cn(-c2cncnc2)c(-c2ccc(-n3ccc4cccnc43)cc2)n1 [Example 67]
IC50: 274 nM

Cc1cc(-n2cc(-c3cccnc3)nc2-c2ccc(-n3ccc4cccnc43)cc2)ccn1 [Example 68, 1-(4-(1-(2-methylpyridin-4-yl)-4-(pyridin-3-yl)-1H-imidazol-2-yl)phenyl)-1H-pyrrolo[2,3-b]pyridine bis-TFA salt]
IC50: 5.1 nM

Cc1cc(-n2cc(-c3ccncc3)nc2-c2ccc(-n3ccc4cccnc43)cc2)ccn1 [Example 69, 1-(4-(1-(2-methylpyridin-4-yl-4-(pyridin-4-yl)-1H-imidazol-2-yl)phenyl)-1H-pyrrolo-[2,3-b]pyridinebis-TFA salt]
IC50: 89.7 nM

Clc1ccc(-c2ccc(-c3nc(-c4ccccn4)cn3-c3cncnc3)cc2)cc1Cl [Example 70, 5-(2-(4-(3,4-dichloropheny)phenyl)-4-(pyridin-2-yl)-1H-imidazol-1-yl)pyrimidine]
IC50: 216 nM

Clc1ccc(-c2ccc(-c3nc(-c4ccccn4)cn3-c3cncnc3)cc2)cc1 [Example 71, 5-(2-(4-(4-chlorophenyl)phenyl)-4-(pyridin-2-yl)-1H-imidazol-1-yl)pyrimidine]
IC50: 67.6 nM

c1ccc(-c2cn(-c3cncnc3)c(-c3ccc(-c4cccnc4)cc3)n2)nc1 [Example 72]
IC50: 160 nM

c1ccc(-c2cn(-c3cncnc3)c(-c3ccc(-c4ccncc4)cc3)n2)nc1 [Example 73]
IC50: 74.3 nM

Cc1ccc(-n2cc(-c3ccccn3)nc2-c2ccc(-n3ccc4cncnc43)cc2)cn1 [Example 74, 7-(4-(1-(6-methylpyridin-3-yl)-4-(pyridin-2-yl)-1H-imidazol-2-yl)phenyl)-7H-pyrrolo[2,3-d]pyrimidine]
IC50: 2.27 nM

Cc1ccc(-n2cc(-c3ccccn3)nc2-c2ccc(-n3cc(C)c4nccnc43)cc2)cn1 [Example 75]
IC50: 2.41 nM

c1cncc(-n2cc(-c3nc4ccccc4s3)nc2-c2ccc(-n3ccc4cccnc43)cc2)c1 [Example 76, 1-(4-(4-benzo[d]thiazol-2-yl)-1-(pyridin-3-yl)-1H-b]pyridine]
IC50: 544 nM

COc1ccnc2c(-c3ccc(-c4nc(-c5ccccn5)cn4-c4cccnc4)cc3)cc(C)cc12 [Example 77]
IC50: 156 nM

c1ccc(-c2cn(-c3cccnc3)c(-c3ccc(-c4nccc5cccnc45)cc3)n2)nc1 [Example 78]
IC50: 3.26 nM

c1ccc(-c2cn(-c3cccnc3)c(-c3ccc(-c4cccc5cccnc45)cc3)n2)nc1 [Example 79, 8-(4-(4-(pyridin-2-yl)-1-(pyridin-3-yl)-1H-imidazol-2-yl)phenyl)quinoline]
IC50: 3.94 nM

COc1cc(-c2ccc(-c3nc(-c4ccccn4)cn3-c3cccnc3)cc2)c2ncccc2c1 [Example 80, 6-methoxy-8-(4-(4-(pyridin-2-yl)-1-(pyridin-3-yl)-1H-imidazol-2-yl)phenyl)quinoline]
IC50: 0.794 nM

Cc1ccc(-n2cc(-c3nccs3)nc2-c2ccc(-n3c(C(F)F)nc4cccnc43)cc2)cn1 [Example 84]
IC50: 0.73 nM

Cc1nc(-c2cn(-c3cncnc3)c(-c3ccc(-n4ccc5cccnc54)cc3)n2)sc1C [Example 85]
IC50: 74.2 nM

Cc1ccc(-n2cc(-c3nccs3)nc2-c2ccc(-n3c(C(F)(F)F)nc4cccnc43)cc2)cn1 [Example 87]
IC50: < 1000 nM

COc1nc2cccnc2n1-c1ccc(-c2nc(-c3nc(C)cs3)cn2-c2ccc(C)nc2)cc1 [Example 90, 2-methoxy-3-(4-(1-(6-methylpyridin-3-yl)-4-(4-methylthiazol-2-yl)-1H-imidazol-2-yl)phenyl)-3H-imidazol[4,5-b]pyridine]
IC50: 0.287 nM

CCCOc1nc2cccnc2n1-c1ccc(-c2nc(-c3ccccn3)cn2-c2ccc(C)nc2)cc1 [Example 91, 3-(4-(1-(6-methylpyridin-3-yl)-4-(pyridin-2-yl)-1H-imidazol-2-yl)phenyl)-2-propoxy-3H-imidazo[4,5-b]pyridine]
IC50: 0.741 nM

COc1nc2cccnc2n1-c1ccc(-c2nc(-c3cccs3)cn2-c2ccc(C)nc2)cc1 [Example 93, 2-methoxy-3-(4-(1-(6-methylpyridin-3-yl)-4-(thiophen-2-yl)-1H-imidazol-2-yl)phenyl)-3H-imidazo[4,5-b]pyridine]
IC50: < 0.424 nM

CCOc1nc2cccnc2n1-c1ccc(-c2nc(-c3ccccn3)cn2-c2ccc(C)nc2)cc1 [Example 94, 2-ethoxy-3-(4-(1-(6-methylpyridin-3-yl)-4-(pyridin-2-yl)-1H-imidazol-2-yl)phenyl)-3H-imidazol[4,5-b]pyridine]
IC50: 1.02 nM

Cc1ccc(-n2cc(-c3ccccn3)nc2-c2ccc(-n3c(=O)[nH]c4cccnc43)cc2)cn1 [Example 95]
IC50: 3.91 nM

COc1nc2cccnc2n1-c1ccc(-c2nc(-c3cscn3)cn2-c2ccc(C)nc2)cc1 [Example 96, 2-methoxy-3-(4-(1-(6-methylpyridin-3-yl)-4-(thiazol-4-yl)-1H-imidazol-2-yl)phenyl)-3H-imidazo[4,5-b]pyridine]
IC50: 0.695 nM

Cc1ccc(-n2cc(-c3cncs3)nc2-c2ccc(-n3c(C(C)C)nc4cccnc43)cc2)cn1 [Example 97]
IC50: 1.96 nM

Cc1ccc(-n2cc(-c3cscn3)nc2-c2ccc(-n3c(C(C)C)nc4cccnc43)cc2)cn1 [Example 98, 2-isopropyl-3-(4-(1-(6-methylpyridin-3-yl)-4-(thiazol-4-yl)-1H-imidazol-2-yl)phenyl)-3H-imidazo[4,5-b]pyridine]
IC50: 1.13 nM

CCOc1nc2cccnc2n1-c1ccc(-c2nc(-c3cscn3)cn2-c2ccc(C)nc2)cc1 [Example 100, 2-ethoxy-3-(4-(1-(6-methylpyridin-3-yl)-4-(thiazol-4-yl)-1H-imidazol-2-yl)phenyl)-3H-imidazo[4,5-b]pyridine]
IC50: 1.31 nM

COc1ccc(-c2[nH]c(-c3cccs3)nc2-c2ccc(-n3ccc4cc(OC)ccc43)cc2)cc1 [Example 102, 5-methoxy-1-(4-(5-(4-methoxyphenyl)-2-(thiophen-2-yl)-1H-imidazol-4-yl)phenyl)-1H-indole]
IC50: 15.8 nM

COc1ccc(-c2[nH]c(-c3cccs3)nc2-c2ccc(-n3ccc4cccnc43)cc2)cc1 [Example 103]
IC50: 2.82 nM

On1c(-c2cccs2)nc(-c2ccc(-n3ccc4cccnc43)cc2)c1-c1cnccn1 [Example 104, 1-(4-(1-hydroxy-5-(pyrazin-2-yl)-2-(thiophen-2-yl)-1H-imidazol-4-yl)phenyl)-1H-pyrrolo[2,3-b]pyridine]
IC50: < 2.45 nM

c1csc(-c2nc(-c3ccc(-n4ccc5cccnc54)cc3)c(-c3cnccn3)[nH]2)c1 [Example 105]
IC50: 9.21 nM

COc1ccc(-c2[nH]c(-c3cccs3)nc2-c2ccc(-n3ccnc3)cc2)cc1 [Example 106, 1-(4-(5-(4-methoxyphenyl)-2-(thiophen-2-yl)-1H-imidazol-4-yl)phenyl)-1H-imidazole]
IC50: 11 nM

CN1CCN(c2ccc(-c3[nH]c(-c4cncs4)nc3-c3ccc(-n4ccc5cccnc54)cc3)cn2)CC1 [Example 107]
IC50: 2.26 nM
